Test results: US20180244699A1, “1-HYDROXY-3H-2,1-BENZOXABOROLE DERIVATIVES AND THEIR USE AS MICROBIOCIDES” (Syngenta Participations AG, priority 2015, published 2018)

What was measured:
Assay type in all cases: cell-based
[1] = tested on: Pythium ultimum; assay: Pythium ultimum / liquid culture (seedling damping off); details: Globisporangium ultimum, growth inhibition photometrically 2-3 days after application, compared to untreated control
Description: 15. Pythium ultimum/Liquid Culture (Seedling Damping Off) Mycelia fragments and oospores of a newly grown liquid culture of the fungus are directly mixed into nutrient broth (PDB potato dextrose broth). After placing a (DMSO) solution of test compound into a microtiter plate (96-well format), the nutrient broth containing the fungal mycelia/spore mixture is added. The test plates are incubated at 24° C. and the inhibition of growth is determined photometrically 2-3 days after application.

[2] = tested on: Gaeumannomyces graminis; assay: Gaeumannomyces graminis / liquid culture (take-all of cereals); details: growth inhibition photometrically 4-5 days after application, compared to untreated control
Description: (§1) 6. Gaeumannomyces Graminis/Liquid Culture (Take-all of Cereals) Mycelial fragments of the fungus from cryogenic storage were directly mixed into nutrient broth (PDB potato dextrose broth). After placing a (DMSO) solution of test compound into a microtiter plate (96-well format), the nutrient broth containing the fungal spores is added. The test plates are incubated at 24° C. and the inhibition of growth is determined photometrically 4-5 days after application.

[3] = tested on: Monographella nivalis (Microdochium nivale); assay: Monographella nivalis (Microdochium nivale) / liquid culture (foot rot cereals); details: growth inhibition photometrically 4-5 days after application, compared to untreated control
Description: as §1, with “8. Monographella nivalis (Microdochium nivale)/Liquid” for “6. Gaeumannomyces Graminis/Liquid”, “(Foot Rot” for “(Take-all of”, “Conidia” for “Mycelial fragments”, “are” for “were”

Structure (SMILES) | inhibition of growth at 20 ppm [1] [%] | inhibition of growth at 20 ppm [2] [%] | inhibition of growth at 20 ppm [3] [%]
COc1c(C(=O)Oc2ccc(C#N)cc2)ccc2c1B(O)OC2 [Compound 14, (4-cyanophenyl) 1-hydroxy-7-methoxy-3H-2,1-benzoxaborole-6-carboxylate] | ≥ 80 | ≥ 80 | –
COc1c(C(=O)NCc2c(C)cccc2Cl)ccc2c1B(O)OC2 [Compound 31, N-[(2-chloro-6-methyl-phenyl)methyl]-1-hydroxy-7-methoxy-3H-2,1-benzoxaborole-6-carboxamide] | ≥ 80 | – | ≥ 80
CCOc1ccc(NC(=O)c2ccc3c(c2OC)B(O)OC3)cc1Cl [Compound 41, N-(3-chloro-4-ethoxy-phenyl)-1-hydroxy-7-methoxy-3H-2,1-benzoxaborole-6-carboxamide] | – | – | ≥ 80
COc1c(C(=O)Nc2nc(C(C)C)ncc2C)ccc2c1B(O)OC2 [Compound 45, 1-hydroxy-N-(2-isopropyl-5-methyl-pyrimidin-4-yl)-7-methoxy-3H-2,1-benzoxaborole-6-carboxamide] | ≥ 80 | – | ≥ 80
COc1c(C(=O)Nc2n[nH]c(C(F)(F)F)n2)ccc2c1B(O)OC2 [Compound 46, 1-hydroxy-7-methoxy-N-[5-(trifluoromethyl)-1H-1,2,4-triazol-3-yl]-3H-2,1-benzoxaborole-6-carboxamide] | ≥ 80 | – | ≥ 80
COc1c(C(=O)N(C)c2nnc(C(F)(F)F)s2)ccc2c1B(O)OC2 [Compound 49, 1-hydroxy-7-methoxy-N-methyl-N-[5-(trifluoromethyl)-1,3,4-thiadiazol-2-yl]-3H-2,1-benzoxaborole-6-carboxamide] | ≥ 80 | – | ≥ 80
COC(=O)c1cccc(NC(=O)c2ccc3c(c2OC)B(O)OC3)c1 [Compound 52, methyl 3-[(1-hydroxy-7-methoxy-3H-2,1-benzoxaborole-6-carbonyl)amino]benzoate] | ≥ 80 | – | ≥ 80
COc1c(C(=O)Nc2ccc(Cl)cc2F)ccc2c1B(O)OC2 [Compound 54, N-(4-chloro-2-fluoro-phenyl)-1-hydroxy-7-methoxy-3H-2,1-benzoxaborole-6-carboxamide] | – | – | ≥ 80
COc1c(C(=O)Nc2ccc(OC(F)(F)F)cc2)ccc2c1B(O)OC2 [Compound 55, 1-hydroxy-7-methoxy-N-[4-(trifluoromethoxy)phenyl]-3H-2,1-benzoxaborole-6-carboxamide] | – | – | ≥ 80
COc1c(C(=O)NC(C)c2ccc(F)cc2)ccc2c1B(O)OC2 (centres unmarked) [Compound 57, N-[1-(4-fluorophenyl)ethyl]-1-hydroxy-7-methoxy-3H-2,1-benzoxaborole-6-carboxamide] | ≥ 80 | – | ≥ 80
CCCNC(=O)c1ccc2c(c1OC)B(O)OC2 [Compound 63, 1-hydroxy-7-methoxy-N-propyl-3H-2,1-benzoxaborole-6-carboxamide] | ≥ 80 | – | ≥ 80
COc1c(C(=O)Nc2ccc(C)cn2)ccc2c1B(O)OC2 [Compound 66, 1-hydroxy-7-methoxy-N-(5-methyl-2-pyridyl)-3H-2,1-benzoxaborole-6-carboxamide] | ≥ 80 | – | ≥ 80
COc1c(C(=O)OCC(OC)c2ccccc2)ccc2c1B(O)OC2 (centres unmarked) [Compound 75, (2-methoxy-2-phenyl-ethyl) 1-hydroxy-7-methoxy-3H-2,1-benzoxaborole-6-carboxylate] | ≥ 80 | ≥ 80 | ≥ 80
COc1c(C(=O)OCC2CCC=CO2)ccc2c1B(O)OC2 (centres unmarked) [Compound 77, 3,4-dihydro-2H-pyran-2-ylmethyl 1-hydroxy-7-methoxy-3H-2,1-benzoxaborole-6-carboxylate] | ≥ 80 | ≥ 80 | ≥ 80
COc1c(C(=O)OCC#Cc2ccc(Cl)cc2)ccc2c1B(O)OC2 [Compound 80, 3-(4-chlorophenyl)prop-2-ynyl 1-hydroxy-7-methoxy-3H-2,1-benzoxaborole-6-carboxylate] | ≥ 80 | ≥ 80 | ≥ 80
COc1c(C(=O)OCCOc2ccc(Cl)cc2)ccc2c1B(O)OC2 [Compound 81, 2-(4-chlorophenoxy)ethyl 1-hydroxy-7-methoxy-3H-2,1-benzoxaborole-6-carboxylate] | ≥ 80 | ≥ 80 | ≥ 80

Structure (SMILES) | inhibition of growth at 20 ppm [1] [%] | inhibition of growth at 20 ppm [2] [%] | inhibition of growth at 20 ppm [3] [%]
COc1c(C(=O)OCc2ncc(Cl)cc2F)ccc2c1B(O)OC2 [Compound 87, (5-chloro-3-fluoro-2-pyridyl)methyl 1-hydroxy-7-methoxy-3H-2,1-benzoxaborole-6-carboxylate] | ≥ 80 | ≥ 80 | –
COc1c(C(=O)OCc2cccc(C(F)(F)F)c2)ccc2c1B(O)OC2 [Compound 88, [3-(trifluoromethyl)phenyl]methyl 1-hydroxy-7-methoxy-3H-2,1-benzoxaborole-6-carboxylate] | ≥ 80 | ≥ 80 | ≥ 80
COC(=O)Nc1ccc(COC(=O)c2ccc3c(c2OC)B(O)OC3)cc1 [Compound 90, [4-(methoxycarbonylamino)phenyl]methyl 1-hydroxy-7-methoxy-3H-2,1-benzoxaborole-6-carboxylate] | ≥ 80 | ≥ 80 | ≥ 80
COc1c(C(=O)OC(C)c2cc(C(F)(F)F)n[nH]2)ccc2c1B(O)OC2 (centres unmarked) [Compound 91, 1-[3-(trifluoromethyl)-1H-pyrazol-5-yl]ethyl 1-hydroxy-7-methoxy-3H-2,1-benzoxaborole-6-carboxylate] | ≥ 80 | ≥ 80 | –
COc1c(C(=O)OCc2c(Cl)cc(O)cc2Cl)ccc2c1B(O)OC2 [Compound 92, (2,6-dichloro-4-hydroxy-phenyl)methyl 1-hydroxy-7-methoxy-3H-2,1-benzoxaborole-6-carboxylate] | ≥ 80 | ≥ 80 | ≥ 80
COc1c(C(=O)OCCON=C(C)C)ccc2c1B(O)OC2 [Compound 93, 2-(isopropylideneamino)oxyethyl 1-hydroxy-7-methoxy-3H-2,1-benzoxaborole-6-carboxylate] | ≥ 80 | ≥ 80 | –
COc1c(C(=O)OCC(C)(C)c2nnc(S)nc2O)ccc2c1B(O)OC2 [Compound 95, [2-(5-hydroxy-3-sulfanyl-1,2,4-triazin-6-yl)-2-methyl-propyl] 1-hydroxy-7-methoxy-3H-2,1-benzoxaborole-6-carboxylate] | ≥ 80 | ≥ 80 | ≥ 80
COc1c(C(=O)OCc2nc(C)cs2)ccc2c1B(O)OC2 [Compound 96, (4-methylthiazol-2-yl)methyl 1-hydroxy-7-methoxy-3H-2,1-benzoxaborole-6-carboxylate] | ≥ 80 | ≥ 80 | ≥ 80
COc1c(C(=O)OCn2cnc(Cl)c2Cl)ccc2c1B(O)OC2 [Compound 97, (4,5-dichloroimidazol-1-yl)methyl 1-hydroxy-7-methoxy-3H-2,1-benzoxaborole-6-carboxylate] | ≥ 80 | ≥ 80 | –
CCOC(=O)CC(OC(=O)c1ccc2c(c1OC)B(O)OC2)C(F)(F)F (centres unmarked) [Compound 101, [3-ethoxy-3-oxo-1-(trifluoromethyl)propyl] 1-hydroxy-7-methoxy-3H-2,1-benzoxaborole-6-carboxylate] | ≥ 80 | ≥ 80 | –
COc1c(C(=O)OCCn2nc(C)cc2OC(C)=O)ccc2c1B(O)OC2 [Compound 102, 2-(5-acetoxy-3-methyl-pyrazol-1-yl)ethyl 1-hydroxy-7-methoxy-3H-2,1-benzoxaborole-6-carboxylate] | ≥ 80 | ≥ 80 | –
COc1c(C(=O)OCc2cccc(C)n2)ccc2c1B(O)OC2 [Compound 119, (6-methyl-2-pyridyl)methyl 1-hydroxy-7-methoxy-3H-2,1-benzoxaborole-6-carboxylate] | ≥ 80 | – | ≥ 80
COc1c(C(=O)OCc2cc(Cl)ccc2Cl)ccc2c1B(O)OC2 [Compound 120, (2,5-dichlorophenyl)methyl 1-hydroxy-7-methoxy-3H-2,1-benzoxaborole-6-carboxylate] | – | ≥ 80 | –
COc1c(C(=O)OCCc2ccccn2)ccc2c1B(O)OC2 [Compound 123, 2-(2-pyridyl)ethyl 1-hydroxy-7-methoxy-3H-2,1-benzoxaborole-6-carboxylate] | ≥ 80 | – | –
COc1cc(COC(=O)c2ccc3c(c2OC)B(O)OC3)ccc1O [Compound 126, (4-hydroxy-3-methoxy-phenyl)methyl 1-hydroxy-7-methoxy-3H-2,1-benzoxaborole-6-carboxylate] | ≥ 80 | – | –
